Assay results as given in paper PMC5218480 (PLoS ONE, 2017).

Tested on: MV-4-11 cells
Assay: Gene expression microarray analysis (Affymetrix PrimeView) and GSEA
Format: cell-based, human
Design: RFU PODN (11730768_x_at) / Fold change /veh PODN (11730768_x_at) / RFU LINC00158 (11744669_a_at) / Fold change /veh LINC00158 (11744669_a_at) / RFU DUSP10 (11751237_a_at) / Fold change /veh DUSP10 (11751237_a_at) / RFU ID3 (11757404_x_at) / Fold change /veh ID3 (11757404_x_at) / RFU PLEKHG5 (11737974_s_at) / Fold change /veh PLEKHG5 (11737974_s_at) / RFU LRRC4B (11730491_at) / Fold change /veh LRRC4B (11730491_at) / RFU GIMAP4 (11747438_a_at) / Fold change /veh GIMAP4 (11747438_a_at) / RFU KRT8 (11758183_x_at) / Fold change /veh KRT8 (11758183_x_at) / RFU CNN1 (11734310_a_at) / Fold change /veh CNN1 (11734310_a_at) / RFU VPS37D (11726825_at) / Fold change /veh VPS37D (11726825_at) / RFU C10orf10 (11716522_x_at) / Fold change /veh C10orf10 (11716522_x_at) / RFU KIR2DL2 /// KIR2DL4 /// KIR2DL5A /// KIR2DL5B /// KIR2DS1 /// KIR2DS2 /// KIR2DS3 /// KIR2DS4 /// KIR3DL3 /// KIR3DL3 /// KIR3DS1 (11738374_at) / Fold change /veh KIR2DL2 /// KIR2DL4 /// KIR2DL5A /// KIR2DL5B /// KIR2DS1 /// KIR2DS2 /// KIR2DS3 /// KIR2DS4 /// KIR3DL3 /// KIR3DL3 /// KIR3DS1 (11738374_at) / RFU C1QL1 (11718748_at) / Fold change /veh C1QL1 (11718748_at) / RFU TMPRSS4 (11747572_a_at) / Fold change /veh TMPRSS4 (11747572_a_at) / RFU HAMP (11756126_x_at) / Fold change /veh HAMP (11756126_x_at) / RFU RNFT2 (11725882_a_at) / Fold change /veh RNFT2 (11725882_a_at) / RFU NR4A2 (11747474_a_at) / Fold change /veh NR4A2 (11747474_a_at) / RFU ABCC12 (11746883_a_at) / Fold change /veh ABCC12 (11746883_a_at) / RFU TMEM136 (11760407_x_at) / Fold change /veh TMEM136 (11760407_x_at) / RFU CLDN22 /// WWC2 (11732394_at) / Fold change /veh CLDN22 /// WWC2 (11732394_at) / RFU HLA-DPB1 (11760878_x_at) / Fold change /veh HLA-DPB1 (11760878_x_at) / RFU SPINT1 (11716480_a_at) / Fold change /veh SPINT1 (11716480_a_at) / RFU GAP43 (11754022_s_at) / Fold change /veh GAP43 (11754022_s_at) / RFU A4GNT (11735810_at) / Fold change /veh A4GNT (11735810_at) / RFU PRB3 (11715151_x_at) / Fold change /veh PRB3 (11715151_x_at) / RFU TUBB4B (11761932_at) / Fold change /veh TUBB4B (11761932_at) / RFU CAPN14 (11732068_a_at) / Fold change /veh CAPN14 (11732068_a_at) / RFU TMCC2 (11721928_a_at) / Fold change /veh TMCC2 (11721928_a_at) / RFU IRGQ (11745062_a_at) / Fold change /veh IRGQ (11745062_a_at) / RFU FAM174B (11720279_a_at) / Fold change /veh FAM174B (11720279_a_at) / RFU TMPRSS4 (11748680_a_at) / Fold change /veh TMPRSS4 (11748680_a_at) / RFU FAM212B (11763350_a_at) / Fold change /veh FAM212B (11763350_a_at) / RFU PLEKHG5 (11743358_a_at) / Fold change /veh PLEKHG5 (11743358_a_at) / RFU ZSCAN30 (11745921_a_at) / Fold change /veh ZSCAN30 (11745921_a_at) / RFU CMKLR1 (11741424_a_at) / Fold change /veh CMKLR1 (11741424_a_at) / RFU LOC101060620 /// MAPK8IP1 (11723275_at) / Fold change /veh LOC101060620 /// MAPK8IP1 (11723275_at) / RFU SPTSSB (11747773_x_at) / Fold change /veh SPTSSB (11747773_x_at) / RFU PRSS12 (11739890_at) / Fold change /veh PRSS12 (11739890_at) / RFU BIN1 (11741810_x_at) / Fold change /veh BIN1 (11741810_x_at) / RFU WNT11 (11732464_a_at) / Fold change /veh WNT11 (11732464_a_at) / RFU C10orf10 (11716521_a_at) / Fold change /veh C10orf10 (11716521_a_at) / RFU C5orf56 (11738089_at) / Fold change /veh C5orf56 (11738089_at) / RFU CYB561 (11721691_x_at) / Fold change /veh CYB561 (11721691_x_at) / RFU ANKRD19P (11752326_a_at) / Fold change /veh ANKRD19P (11752326_a_at) / RFU OR2T12 /// OR2T33 /// OR2T8 (11738714_s_at) / Fold change /veh OR2T12 /// OR2T33 /// OR2T8 (11738714_s_at) / RFU VCAN (11748164_a_at) / Fold change /veh VCAN (11748164_a_at) / RFU JSRP1 (11732532_at) / Fold change /veh JSRP1 (11732532_at) / RFU KRTAP10-11 (11738290_x_at) / Fold change /veh KRTAP10-11 (11738290_x_at) / RFU MYO3A (11730013_a_at) / Fold change /veh MYO3A (11730013_a_at) / RFU EBF3 (11725865_a_at) / Fold change /veh EBF3 (11725865_a_at) / RFU CAMK2N1 (11719241_x_at) / Fold change /veh CAMK2N1 (11719241_x_at) / RFU C5orf56 (11738088_a_at) / Fold change /veh C5orf56 (11738088_a_at) / RFU OLFML3 (11715873_a_at) / Fold change /veh OLFML3 (11715873_a_at) / RFU LOC100653217 /// NTM (11731650_a_at) / Fold change /veh LOC100653217 /// NTM (11731650_a_at) / RFU MAPK11 (11762145_a_at) / Fold change /veh MAPK11 (11762145_a_at) / RFU FIZ1 (11724087_x_at) / Fold change /veh FIZ1 (11724087_x_at) / RFU OASL (11726364_x_at) / Fold change /veh OASL (11726364_x_at) / RFU SOX15 (11748057_x_at) / Fold change /veh SOX15 (11748057_x_at) / RFU CD79A (11719716_a_at) / Fold change /veh CD79A (11719716_a_at) / RFU HIST1H1D (11736915_at) / Fold change /veh HIST1H1D (11736915_at) / RFU CASKIN2 (11723855_a_at) / Fold change /veh CASKIN2 (11723855_a_at) / RFU LOC730098 (11760151_x_at) / Fold change /veh LOC730098 (11760151_x_at) / RFU OR4N2 (11742367_at) / Fold change /veh OR4N2 (11742367_at) / RFU PRRT2 (11749266_a_at) / Fold change /veh PRRT2 (11749266_a_at) / RFU SNX32 (11753110_a_at) / Fold change /veh SNX32 (11753110_a_at) / RFU CDHR5 (11726645_a_at) / Fold change /veh CDHR5 (11726645_a_at) / RFU RCAN1 (11760418_a_at) / Fold change /veh RCAN1 (11760418_a_at) / RFU FAM167A (11723789_a_at) / Fold change /veh FAM167A (11723789_a_at) / RFU FAM26E (11764081_at) / Fold change /veh FAM26E (11764081_at) / RFU ISYNA1 (11749810_s_at) / Fold change /veh ISYNA1 (11749810_s_at) / RFU ACY1 (11761880_at) / Fold change /veh ACY1 (11761880_at) / RFU 11764098_at / Fold change /veh 11764098_at / RFU SAMD14 (11745864_x_at) / Fold change /veh SAMD14 (11745864_x_at) / RFU NPB (11741838_a_at) / Fold change /veh NPB (11741838_a_at) / RFU TMPRSS6 (11731388_a_at) / Fold change /veh TMPRSS6 (11731388_a_at) / RFU KRTAP10-2 (11738614_at) / Fold change /veh KRTAP10-2 (11738614_at) / RFU ARHGAP8 /// PRR5-ARHGAP8 (11727945_x_at) / Fold change /veh ARHGAP8 /// PRR5-ARHGAP8 (11727945_x_at) / RFU KRTAP5-7 /// NADSYN1 (11734609_at) / Fold change /veh KRTAP5-7 /// NADSYN1 (11734609_at) / RFU RASL12 (11751679_a_at) / Fold change /veh RASL12 (11751679_a_at) / RFU CDKN2B (11736163_a_at) / Fold change /veh CDKN2B (11736163_a_at) / RFU PRF1 (11729649_at) / Fold change /veh PRF1 (11729649_at) / RFU, ZNF638 /// ZNF638-IT1 / Fold change vs veh, ZNF638 /// ZNF638-IT1 / RFU, PANK3 / Fold change vs veh, PANK3 / RFU, SH3YL1 / Fold change vs veh, SH3YL1 / RFU, ZEB2 / Fold change vs veh, ZEB2 / RFU, NRIP1 / Fold change vs veh, NRIP1 / RFU, PTTG1IP / Fold change vs veh, PTTG1IP / RFU, CAPN2 / Fold change vs veh, CAPN2 / RFU, MED14 / Fold change vs veh, MED14 / RFU, SNORA58 / Fold change vs veh, SNORA58 / RFU, C1orf63 / Fold change vs veh, C1orf63 / RFU, LRRFIP1 / Fold change vs veh, LRRFIP1 / RFU, NDUFAF7 / Fold change vs veh, NDUFAF7 / RFU, SLC12A2 / Fold change vs veh, SLC12A2 / RFU, IBTK / Fold change vs veh, IBTK / RFU, ESF1 / Fold change vs veh, ESF1 / Fold change vs veh, TMEM50B / RFU, TAOK1 / Fold change vs veh, TAOK1 / RFU, ACBD3 / Fold change vs veh, ACBD3 / RFU, TMA16 / Fold change vs veh, TMA16 / RFU, RWDD3 / Fold change vs veh, RWDD3 / RFU, BCAT1 / Fold change vs veh, BCAT1 / RFU, EDEM3 / Fold change vs veh, EDEM3 / RFU, TMEM33 / Fold change vs veh, TMEM33 / RFU, WDR75 / Fold change vs veh, WDR75 / RFU, AHCTF1 / Fold change vs veh, AHCTF1 / RFU, TFRC / Fold change vs veh, TFRC / RFU, ZDHHC17 / Fold change vs veh, ZDHHC17 / RFU, NOM1 / Fold change vs veh, NOM1 / RFU, ARL8B / Fold change vs veh, ARL8B / RFU, ZBTB11 / Fold change vs veh, ZBTB11 / RFU, TAMM41 / Fold change vs veh, TAMM41 / RFU, KIAA1704 /// LOC100996395 / Fold change vs veh, KIAA1704 /// LOC100996395 / RFU, ING1 / Fold change vs veh, ING1 / RFU, TRMT61B / Fold change vs veh, TRMT61B / RFU, FUBP3 / Fold change vs veh, FUBP3 / RFU, TP53 / Fold change vs veh, TP53 / RFU, TNKS2 / Fold change vs veh, TNKS2 / RFU, ZFP14 / Fold change vs veh, ZFP14 / RFU, ACTR2 / Fold change vs veh, ACTR2 / RFU, PPP3R1 / Fold change vs veh, PPP3R1 / RFU, PIK3R1 / Fold change vs veh, PIK3R1 / RFU, HNRNPA1 / Fold change vs veh, HNRNPA1 / RFU, RNF170 / Fold change vs veh, RNF170 / RFU, ZNF28 / Fold change vs veh, ZNF28 / RFU, RNGTT / Fold change vs veh, RNGTT / RFU, OGT / Fold change vs veh, OGT / RFU, BRD1 / Fold change vs veh, BRD1 / RFU, MARS / Fold change vs veh, MARS / RFU, ZNF655 / Fold change vs veh, ZNF655 / RFU, FAHD1 / Fold change vs veh, FAHD1 / RFU, BDP1 / Fold change vs veh, BDP1 / RFU, LRRCC1 / Fold change vs veh, LRRCC1 / RFU, ARID1A / Fold change vs veh, ARID1A / RFU, ZNF146 / Fold change vs veh, ZNF146 / RFU, ZNF330 / Fold change vs veh, ZNF330 / RFU, GPN3 / Fold change vs veh, GPN3 / RFU, C9orf123 / Fold change vs veh, C9orf123 / RFU, N4BP2L2 / Fold change vs veh, N4BP2L2 / RFU, ARFIP1 / Fold change vs veh, ARFIP1 / RFU, FAM179B / Fold change vs veh, FAM179B / RFU, BCL10 / Fold change vs veh, BCL10 / RFU, UHRF1BP1L / Fold change vs veh, UHRF1BP1L / RFU, BET1 / Fold change vs veh, BET1 / RFU, CNOT2 / Fold change vs veh, CNOT2 / RFU, ZNF268 / Fold change vs veh, ZNF268 / Fold change vs veh, ZNF507 / RFU, DGCR2 / Fold change vs veh, DGCR2 / RFU, WDSUB1 / Fold change vs veh, WDSUB1 / Fold change vs veh, HSP90B1 /// MIR3652 / RFU, ADSS / Fold change vs veh, ADSS / RFU, GK / Fold change vs veh, GK / RFU, ZNF148 / Fold change vs veh, ZNF148 / RFU, TAF9 / Fold change vs veh, TAF9 / RFU, SLC1A5 / Fold change vs veh, SLC1A5 / RFU, SLMO2 / Fold change vs veh, SLMO2 / RFU, ABCC4 / Fold change vs veh, ABCC4 / RFU, LOC101060439 /// RAP1B / Fold change vs veh, LOC101060439 /// RAP1B / RFU, RFX7 / Fold change vs veh, RFX7 / RFU, GTPBP10 / Fold change vs veh, GTPBP10 / RFU, CNEP1R1 / Fold change vs veh, CNEP1R1 / RFU, BIVM-ERCC5 /// ERCC5 / Fold change vs veh, BIVM-ERCC5 /// ERCC5 / RFU, ILF3 / Fold change vs veh, ILF3 / RFU 11762660_at / Fold change /veh 11762660_at / RFU VCAN (11757783_s_at) / Fold change /veh VCAN (11757783_s_at) / RFU DDX43 (11728927_at) / Fold change /veh DDX43 (11728927_at) / RFU KRT8 (11758188_x_at) / Fold change /veh KRT8 (11758188_x_at) / RFU NKD1 (11759106_at) / Fold change /veh NKD1 (11759106_at) / RFU SRD5A1 (11742802_a_at) / Fold change /veh SRD5A1 (11742802_a_at) / RFU TPSAB1 /// TPSB2 (11721975_s_at) / Fold change /veh TPSAB1 /// TPSB2 (11721975_s_at) / RFU GSTM3 (11746129_a_at) / Fold change /veh GSTM3 (11746129_a_at) / RFU IL23R (11737362_x_at) / Fold change /veh IL23R (11737362_x_at) / RFU TMEM51 (11727254_a_at) / Fold change /veh TMEM51 (11727254_a_at) / RFU PIWIL2 (11732686_x_at) / Fold change /veh PIWIL2 (11732686_x_at) / RFU ORM1 (11744905_x_at) / Fold change /veh ORM1 (11744905_x_at) / RFU CCDC152 (11743942_at) / Fold change /veh CCDC152 (11743942_at) / RFU ECM1 (11717891_a_at) / Fold change /veh ECM1 (11717891_a_at) / RFU IL23R (11748794_a_at) / Fold change /veh IL23R (11748794_a_at) / RFU TNFAIP8L3 (11732012_x_at) / Fold change /veh TNFAIP8L3 (11732012_x_at) / RFU MBOAT4 (11741988_at) / Fold change /veh MBOAT4 (11741988_at) / RFU 11764193_at / Fold change /veh 11764193_at / RFU TMEM53 (11763286_at) / Fold change /veh TMEM53 (11763286_at) / RFU MAGEB2 (11727129_at) / Fold change /veh MAGEB2 (11727129_at) / RFU TMEM200A (11744735_a_at) / Fold change /veh TMEM200A (11744735_a_at) / RFU CCDC152 (11751479_a_at) / Fold change /veh CCDC152 (11751479_a_at) / RFU FAM211A (11726209_a_at) / Fold change /veh FAM211A (11726209_a_at) / RFU RGS16 (11746705_a_at) / Fold change /veh RGS16 (11746705_a_at) / RFU VCAN (11755009_s_at) / Fold change /veh VCAN (11755009_s_at) / RFU RHOB (11743442_s_at) / Fold change /veh RHOB (11743442_s_at) / RFU RGS16 (11720943_a_at) / Fold change /veh RGS16 (11720943_a_at) / RFU RGS16 (11720944_at) / Fold change /veh RGS16 (11720944_at) / RFU, VPS4B / Fold change vs veh, VPS4B / RFU, CREB1 / Fold change vs veh, CREB1 / RFU, DNAJC13 / Fold change vs veh, DNAJC13 / RFU, GNAQ / Fold change vs veh, GNAQ / RFU, CDK5R1 / Fold change vs veh, CDK5R1 / RFU, ZRANB3 / Fold change vs veh, ZRANB3 / RFU, CUL4A / Fold change vs veh, CUL4A / RFU, CCNY / Fold change vs veh, CCNY / RFU, UFL1 / Fold change vs veh, UFL1 / RFU, COG3 / Fold change vs veh, COG3 / RFU, DIAPH2 / Fold change vs veh, DIAPH2 / RFU, SKA2 / Fold change vs veh, SKA2 / RFU, AFF3 / Fold change vs veh, AFF3 / RFU, LMF1 / Fold change vs veh, LMF1 / RFU, IPO11 / Fold change vs veh, IPO11 / RFU, DFFB / Fold change vs veh, DFFB / RFU, FOXP1 / Fold change vs veh, FOXP1 / RFU, CARD8 / Fold change vs veh, CARD8 / RFU, STRN3 / Fold change vs veh, STRN3 / RFU, ADK / Fold change vs veh, ADK / RFU, RASSF2 / Fold change vs veh, RASSF2 / RFU, WIPF1 / Fold change vs veh, WIPF1 / RFU, LARP1B / Fold change vs veh, LARP1B / RFU, RASA1 / Fold change vs veh, RASA1 / RFU, RB1 / Fold change vs veh, RB1 / RFU, PPFIA1 / Fold change vs veh, PPFIA1 / RFU, MAT2A / Fold change vs veh, MAT2A / RFU, CCT5 / Fold change vs veh, CCT5 / RFU, WDR92 / Fold change vs veh, WDR92 / RFU, CUX1 / Fold change vs veh, CUX1 / RFU, TTC7A / Fold change vs veh, TTC7A / RFU, TMEM135 / Fold change vs veh, TMEM135 / RFU, DEPTOR / Fold change vs veh, DEPTOR / RFU, CPM / Fold change vs veh, CPM / RFU, DNAJB6 / Fold change vs veh, DNAJB6 / RFU, CACNA2D3 / Fold change vs veh, CACNA2D3 / RFU, DTX4 / Fold change vs veh, DTX4 / RFU, TFCP2 / Fold change vs veh, TFCP2 / RFU, GMCL1 /// GMCL1P1 / Fold change vs veh, GMCL1 /// GMCL1P1 / RFU, AEBP2 / Fold change vs veh, AEBP2 / RFU, SNHG1 /// SNORD22 /// SNORD25 /// SNORD26 /// SNORD27 /// SNORD28 /// SNORD29 /// SNORD31 / Fold change vs veh, SNHG1 /// SNORD22 /// SNORD25 /// SNORD26 /// SNORD27 /// SNORD28 /// SNORD29 /// SNORD31 / Fold change (Aza/veh), C12orf56 (ProbeSet 11735607_a_at) / Fold change (ACY-1035/veh), C12orf56 (ProbeSet 11735607_a_at) / Fold change (Aza/veh), FGFR1OP (ProbeSet 11751329_s_at) / Fold change (ACY-1035/veh), FGFR1OP (ProbeSet 11751329_s_at) / Fold change (Aza/veh), VPS36 (ProbeSet 11739960_a_at) / Fold change (ACY-1035/veh), VPS36 (ProbeSet 11739960_a_at) / RFU SYPL1 (11715823_x_at) / Fold change /veh SYPL1 (11715823_x_at) / RFU IGFBP7 (11715501_s_at) / Fold change /veh IGFBP7 (11715501_s_at) / RFU REEP3 (11722064_at) / Fold change /veh REEP3 (11722064_at) / RFU IGLL1 (11728026_x_at) / Fold change /veh IGLL1 (11728026_x_at): dose or concentration left out as unconfirmed
Conditions: ProbeSet 11717308_a_at; LIST B

Nc1ncn([C@@H]2O[C@H](CO)[C@@H](O)[C@H]2O)c(=O)n1 [azacitidine]
Fold change vs veh, WDR75: 1.10
